This is an account of results in patent US9328122B2, “7-substituted Hanfangichin B derivative, and preparation method and use thereof” (HANGZHOU BENSHENG PHARMACEUTICAL CO., LTD., priority 2012, dated 2016).

By IC90 is commonly meant the concentration at which the effect reaches the 90% level. As a reminder, the IC50 is the point on the concentration scale where inhibition reaches its midpoint.

In brackets after ≈: the same amount, converted by molar mass.

The first experiment has as its system RKO (human colon adenocarcinoma) cells. In words: MTT cell growth inhibition, solid tumor cells. It is filed as cell-based. Particulars: Homo sapiens; RKO, 72 h, MTT; read-out: IC90. The source says: (§1) Hep-2 (laryngeal carcinoma), A549 (human lung cancer), CaES-17 (esophageal cancer cell), PC-3 (prostate cancer), CNE (nasopharyngeal carcinoma cell) and SK-OV-3 (ovarian cancer cell), all of which were purchased from China Center For Type Culture Collection; RKO (human colon adenocarcinoma cell), MGC-803 (human gastric cancer cell), MG-63 (osteosarcoma), and U87-MG (malignant glioma cell), all of which were purchased from Fuxiang Bio-tech Co. Ltd., Shanghai, China; PANC-1 (pancreatic cancer), Becap37 (human breast cancer cell), Hela (human cervical cancer cell) and Hep G2 (human liver cancer cell), all of which were donated by Cancer Research Institute of Zhejiang University, China.
(§2) 6000 well-growing human solid tumor cells were obtained and inoculated into wells of a 96-well cell culture plate. The culture medium was DMEM High Glucose cell culture medium containing 10% fetal bovine serum. The plate was placed in a carbon dioxide cell incubator (5% CO2) at 37° C. and incubated for 24 hours. After added with 7-substituted fangchinoline derivatives of different concentration and mixing uniformly, the plate was placed in a carbon dioxide cell incubator (5% CO2) at 37° C. and incubated for 72 hours. Then the viable cell concentration was determined by the MTT method.
With `COc1ccc2cc1Oc1ccc(cc1)C[C@H]1c3cc(c(OC)cc3CCN1C)Oc1c(OCc3cccc(F)c3F)c(OC)cc3c1[C@H](C2)N(C)CC3` [BS-FC-204], the 90% effect concentration (IC90) was found to be 2.95 µg/mL (≈ 4.01 µM).

For a further experiment, the system named is Hela (human cervical cancer) cells. In words: MTT cell growth inhibition, solid tumor cells. The experiment is classed as cell-based. Particulars: Homo sapiens; Hela, 72 h, MTT; read-out: IC50.
Source text: as §1, §2
Take `COc1ccc2cc1Oc1ccc(cc1)C[C@H]1c3cc(c(OC)cc3CCN1C)Oc1c(OCc3cccc(F)c3F)c(OC)cc3c1[C@H](C2)N(C)CC3` [BS-FC-204]: the IC50 came out at 0.5 µg/mL (≈ 0.68 µM).

Staying with this experiment, now noted: Homo sapiens; Hela, 72 h, MTT; read-out: IC90.
Regarding `COc1ccc2cc1Oc1ccc(cc1)C[C@H]1c3cc(c(OC)cc3CCN1C)Oc1c(OCc3cccc(F)c3F)c(OC)cc3c1[C@H](C2)N(C)CC3` [BS-FC-204], the IC90 was found to be 1 µg/mL (≈ 1.36 µM).

Another experiment concerns MG-63 (osteosarcoma) cells. In words: MTT cell growth inhibition, solid tumor cells. Conditions: Homo sapiens; MG-63, 72 h, MTT; read-out: IC50. The experiment is classed as cell-based.
Source text: as §1, §2
Turning to `COc1ccc2cc1Oc1ccc(cc1)C[C@H]1c3cc(c(OC)cc3CCN1C)Oc1c(OCc3cccc(F)c3F)c(OC)cc3c1[C@H](C2)N(C)CC3` [BS-FC-204], the IC50 was determined as 2.6 µg/mL (≈ 3.54 µM).

The experiment is the same for the next values; noted with them: Homo sapiens; MG-63, 72 h, MTT; read-out: IC90.
Consider `COc1ccc2cc1Oc1ccc(cc1)C[C@H]1c3cc(c(OC)cc3CCN1C)Oc1c(OCc3cccc(F)c3F)c(OC)cc3c1[C@H](C2)N(C)CC3` [BS-FC-204], for which the 90% effect concentration (IC90) came out at 3.5 µg/mL (≈ 4.76 µM).

In the next experiment the test system is RPMI 8226 (multiple myeloma) cells. The experiment can be described thus: MTT cell growth inhibition, multiple myeloma cells. It is filed as cell-based, human. Conditions: Homo sapiens; RPMI 8226, 72 h, MTT; read-out: IC50. As to the method:
Myeloma cell lines: RPMI8226 (multiple myeloma), purchased from Fuxiang Bio-tech Co. Ltd., Shanghai, China.
6000 well-growing cells were obtained and inoculated into wells of a 96-well cell culture plate. The culture medium was a RPMI-1640 cell culture medium containing 10% fetal bovine serum. After adding the 7-substituted fangchinoline derivatives of different concentrations the next day and mixing uniformly, the plate was placed in a carbon dioxide cell incubator (5% CO2) at 37° C. and incubated for 72 hours. Then the viable cell concentration was determined by the MTT method.
Take `COc1ccc2cc1Oc1ccc(cc1)C[C@H]1c3cc(c(OC)cc3CCN1C)Oc1c(OCc3cccc(F)c3F)c(OC)cc3c1[C@H](C2)N(C)CC3` [BS-FC-204]: the 50% inhibitory concentration (IC50) came out at 0.42 µg/mL (≈ 0.572 µM).

Still in this experiment, the particulars now being: Homo sapiens; RPMI 8226, 72 h, MTT; read-out: IC90.
As to `COc1ccc2cc1Oc1ccc(cc1)C[C@H]1c3cc(c(OC)cc3CCN1C)Oc1c(OCc3cccc(F)c3F)c(OC)cc3c1[C@H](C2)N(C)CC3` [BS-FC-204], the concentration for an effect of 90% (IC90) came out at 1.58 µg/mL (≈ 2.15 µM).

For the next experiment, the system named is tumor. The experiment can be described thus: Antitumor activity compared with fangchinoline, overall statement. The experiment is classed as cell-based. Conditions: tumor type not specified.
With `COc1ccc2cc1Oc1ccc(cc1)C[C@H]1c3cc(c(OC)cc3CCN1C)Oc1c(OCc3cccc(F)c3F)c(OC)cc3c1[C@H](C2)N(C)CC3` [BS-FC-204], the “antitumor activity compared with that of fangchinoline” value was “significantly superior”.

In the next experiment the test system is CNE (nasopharyngeal carcinoma) cells. In words: MTT cell growth inhibition, solid tumor cells. Particulars: Homo sapiens; CNE, 72 h, MTT; read-out: IC50. It is filed as cell-based, human.
Source text: as §1, §2
For `COc1ccc2cc1Oc1ccc(cc1)C[C@H]1c3cc(c(OC)cc3CCN1C)Oc1c(OCc3cccc(F)c3F)c(OC)cc3c1[C@H](C2)N(C)CC3` [BS-FC-204], the 50% inhibitory concentration (IC50) turned out to be 2.7 µg/mL (≈ 3.67 µM).

Still in this experiment, the particulars now being: Homo sapiens; CNE, 72 h, MTT; read-out: IC90.
Turning to `COc1ccc2cc1Oc1ccc(cc1)C[C@H]1c3cc(c(OC)cc3CCN1C)Oc1c(OCc3cccc(F)c3F)c(OC)cc3c1[C@H](C2)N(C)CC3` [BS-FC-204], the IC90 is 5.2 µg/mL (≈ 7.08 µM).

The subject of another experiment is SK-OV-3 (ovarian cancer) cells. The experiment can be described thus: MTT cell growth inhibition, solid tumor cells. The experiment is classed as cell-based, human. Conditions: Homo sapiens; SK-OV-3, 72 h, MTT; read-out: IC50.
Source text: as §1, §2
On to `COc1ccc2cc1Oc1ccc(cc1)C[C@H]1c3cc(c(OC)cc3CCN1C)Oc1c(OCc3cccc(F)c3F)c(OC)cc3c1[C@H](C2)N(C)CC3` [BS-FC-204], for which the IC50 was determined as 12.2 µg/mL (≈ 16.6 µM).

The same experiment, now with this note: Homo sapiens; SK-OV-3, 72 h, MTT; read-out: IC90.
In the case of `COc1ccc2cc1Oc1ccc(cc1)C[C@H]1c3cc(c(OC)cc3CCN1C)Oc1c(OCc3cccc(F)c3F)c(OC)cc3c1[C@H](C2)N(C)CC3` [BS-FC-204], the 90% effect concentration (IC90) came to 16 µg/mL (≈ 21.8 µM).

In a further experiment the test system is PC-3 (prostate cancer) cells. The experiment can be described thus: MTT cell growth inhibition, solid tumor cells. Particulars: Homo sapiens; PC-3, 72 h, MTT; read-out: IC50. The experiment is classed as cell-based, human.
Source text: as §1, §2
For `COc1ccc2cc1Oc1ccc(cc1)C[C@H]1c3cc(c(OC)cc3CCN1C)Oc1c(OCc3cccc(F)c3F)c(OC)cc3c1[C@H](C2)N(C)CC3` [BS-FC-204], the IC50 stood at 3.8 µg/mL (≈ 5.17 µM).

Still in this experiment, the particulars now being: Homo sapiens; PC-3, 72 h, MTT; read-out: IC90.
With `COc1ccc2cc1Oc1ccc(cc1)C[C@H]1c3cc(c(OC)cc3CCN1C)Oc1c(OCc3cccc(F)c3F)c(OC)cc3c1[C@H](C2)N(C)CC3` [BS-FC-204], the IC90 came out at 6.39 µg/mL (≈ 8.7 µM).

The next experiment has as its system CaEs-17 (esophageal cancer) cells. In words: MTT cell growth inhibition, solid tumor cells. Particulars: Homo sapiens, CaEs17; CaEs-17, 72 h, MTT; read-out: IC50. It is filed as cell-based, human.
Source text: as §1, §2
In the case of `COc1ccc2cc1Oc1ccc(cc1)C[C@H]1c3cc(c(OC)cc3CCN1C)Oc1c(OCc3cccc(F)c3F)c(OC)cc3c1[C@H](C2)N(C)CC3` [BS-FC-204], the IC50 was 4.6 µg/mL (≈ 6.26 µM).

The same experiment, now with this note: Homo sapiens, CaEs17; CaEs-17, 72 h, MTT; read-out: IC90.
In the case of `COc1ccc2cc1Oc1ccc(cc1)C[C@H]1c3cc(c(OC)cc3CCN1C)Oc1c(OCc3cccc(F)c3F)c(OC)cc3c1[C@H](C2)N(C)CC3` [BS-FC-204], the IC90 came out at 14.5 µg/mL (≈ 19.8 µM).

Another experiment relates to PANC-1 (pancreatic cancer) cells. The experiment can be described thus: MTT cell growth inhibition, solid tumor cells. The experiment is classed as cell-based, human. Particulars: Homo sapiens; PANC-1, 72 h, MTT; read-out: IC50.
Source text: as §1, §2
As for `COc1ccc2cc1Oc1ccc(cc1)C[C@H]1c3cc(c(OC)cc3CCN1C)Oc1c(OCc3cccc(F)c3F)c(OC)cc3c1[C@H](C2)N(C)CC3` [BS-FC-204], the IC50 amounted to 2.23 µg/mL (≈ 3.03 µM).

The experiment is the same for the next values; noted with them: Homo sapiens; PANC-1, 72 h, MTT; read-out: IC90.
As for `COc1ccc2cc1Oc1ccc(cc1)C[C@H]1c3cc(c(OC)cc3CCN1C)Oc1c(OCc3cccc(F)c3F)c(OC)cc3c1[C@H](C2)N(C)CC3` [BS-FC-204], the IC90 stood at 6.85 µg/mL (≈ 9.32 µM).
